Laboratory results as given in patent US20250197406A1, “INDAZOLES AS HEMATOPOIETIC PROGENITOR KINASE 1 (HPK1) INHIBITORS AND METHODS FOR USING SAME” (1ST Biotherapeutics, Inc., priority 2022, published 2025).
Counter-ions that a name gives are not always drawn.

Molecular target: recombinant human HPK1 (Homo sapiens (Human), UniProt Q92918)
Experiment: HPK1 kinase assay (Promega ADP-Glo kinase assay)
Assay type: biochemical
Details: In vitro activity against HPK1, 5 ng HPK1, MBP substrate, ATP 25 μM, 30° C. 40 minutes
Description: HPK1 kinase activity was measured by Promega's ADP-Glo™ kinase assay. In this assay, 5 ng of recombinant human HPK1 (signalchem) is incubated with 5 μL of compounds (0.5% DMSO), 5 μL of MBP (0.5 μg/μl) and 5 μL of ATP (25 μM) in buffer (40 mM Tris, 7.5; 20 mM MgCl2; 0.1 mg/ml BSA; 50 μM DTT.). The assay was started by incubating the reaction mixture in a 96-well plate at 30° C. for 40 minutes. After the incubation, 25 μL ADP-Glo reagent was added and the reaction was incubated at room temperature for 40-min to stop the reaction and degrade residual ATP. The ADP product was then converted to ATP by adding 50 μL per well of detection reagent. Luminescence was detected after 30-min room temperature incubation with the Molecular device I3X plate reader. The IC50 values were calculated from a series of percent inhibition values determined at a range of inhibitor concentration using software routines as implemented in the GraphPad Prism 7 software and SigmaPlot13.0.

Sequence of recombinant human HPK1 (Q92918 whole entry): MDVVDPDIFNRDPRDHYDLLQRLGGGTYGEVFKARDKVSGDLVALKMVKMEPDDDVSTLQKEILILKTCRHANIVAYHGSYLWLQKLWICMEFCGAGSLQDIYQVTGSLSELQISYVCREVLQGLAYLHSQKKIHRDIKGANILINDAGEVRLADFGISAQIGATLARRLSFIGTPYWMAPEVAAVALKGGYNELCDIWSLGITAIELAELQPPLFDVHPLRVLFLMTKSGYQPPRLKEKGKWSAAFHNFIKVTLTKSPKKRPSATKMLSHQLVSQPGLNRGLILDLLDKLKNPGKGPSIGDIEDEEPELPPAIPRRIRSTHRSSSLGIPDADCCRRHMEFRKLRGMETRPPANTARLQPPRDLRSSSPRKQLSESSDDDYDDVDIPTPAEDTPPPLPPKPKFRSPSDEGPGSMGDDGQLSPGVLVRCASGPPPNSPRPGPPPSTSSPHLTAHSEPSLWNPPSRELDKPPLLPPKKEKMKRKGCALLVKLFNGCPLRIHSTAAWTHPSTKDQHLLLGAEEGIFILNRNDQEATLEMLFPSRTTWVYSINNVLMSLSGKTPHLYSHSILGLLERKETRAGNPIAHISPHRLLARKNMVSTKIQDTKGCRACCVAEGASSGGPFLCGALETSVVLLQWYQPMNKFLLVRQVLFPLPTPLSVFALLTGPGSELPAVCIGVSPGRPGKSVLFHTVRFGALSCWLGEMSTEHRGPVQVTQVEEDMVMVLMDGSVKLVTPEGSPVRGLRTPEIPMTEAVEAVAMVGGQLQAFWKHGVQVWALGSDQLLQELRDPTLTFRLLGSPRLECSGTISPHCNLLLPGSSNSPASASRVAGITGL

COC(=O)[C@H]1C[C@H]1C(=O)Nc1cn2cc(-c3c(Cl)c(F)c(NC(C)C)c4[nH]ncc34)ncc2n1 [Example 32, methyl (1S,2R)-2-((6-(5-chloro-6-fluoro-7-(isopropylamino)-1H-indazol-4-yl)imidazo[1,2-a]pyrazin-2-yl)carbamoyl)cyclopropane-1-carboxylate]
IC50: < 100 nM

CC(=O)Nc1cn2cc(-c3c(Cl)c(F)c(OC4CN(C(=O)CO)C4)c4[nH]ncc34)ncc2n1 [Example 148, N-(6-(5-chloro-6-fluoro-7-((1-(2-hydroxyacetyl)azetidin-3-yl)oxy)-1H-indazol-4-yl)imidazo[1,2-a]pyrazin-2-yl)acetamide]
IC50: 501 to 1000 nM

CC(N)c1c(F)c(C(F)(F)F)c(-c2cn3cc(NC(=O)[C@@H]4C[C@@H]4F)nc3cn2)c2cn[nH]c12 (stereo partly drawn) [Example 45, (1S,2S)-N-(6-(7-(1-aminoethyl)-6-fluoro-5-(trifluoromethyl)-1H-indazol-4-yl)imidazo[1,2-a]pyrazin-2-yl)-2-fluorocyclopropane-1-carboxamide]
IC50: 501 to 1000 nM

COc1c(F)c(N(C)C)c2[nH]ncc2c1-c1cn2cc(NC(=O)[C@@H]3C[C@@H]3F)nc2cn1 [Example 136, (1S,2S)-N-(6-(7-(dimethylamino)-6-fluoro-5-methoxy-1H-indazol-4-yl)imidazo[1,2-a]pyrazin-2-yl)-2-fluorocyclopropane-1-carboxamide]
IC50: < 100 nM

CC(=O)Nc1cn2cc(-c3c(Cl)c(F)c(OC4CNC4)c4[nH]ncc34)ncc2n1 [Example 147, N-(6-(7-(azetidin-3-yloxy)-5-chloro-6-fluoro-1H-indazol-4-yl)imidazo[1,2-a]pyrazin-2-yl)acetamide formate]
IC50: 501 to 1000 nM

CC(C)Nc1c(F)c(Cl)c(-c2cn3cc(NC(=O)[C@@H]4C[C@@H]4CF)nc3cn2)c2cn[nH]c12 [Example 94, (1R,2S)-N-(6-(5-chloro-6-fluoro-7-(isopropylamino)-1H-indazol-4-yl)imidazo[1,2-a]pyrazin-2-yl)-2-(fluoromethyl)cyclopropane-1-carboxamide]
IC50: < 100 nM

CC(C)Nc1c(F)c(Cl)c(-c2cn3cc(NC(=O)N4CCN(C)CC4)nc3cn2)c2cn[nH]c12 [Example 92, N-(6-(5-chloro-6-fluoro-7-(isopropylamino)-1H-indazol-4-yl)imidazo[1,2-a]pyrazin-2-yl)-4-methylpiperazine-1-carboxamide formate]
IC50: < 100 nM

O=C(Nc1cn2cc(-c3c(C(F)(F)F)c(F)c(C(O)C4CC4)c4[nH]ncc34)ncc2n1)[C@@H]1C[C@@H]1CO (stereo partly drawn) [Example 118, (1R,2S)-N-(6-(7-(cyclopropyl(hydroxy)methyl)-6-fluoro-5-(trifluoromethyl)-1H-indazol-4-yl)imidazo[1,2-a]pyrazin-2-yl)-2-(hydroxymethyl)cyclopropane-1-carboxamide]
IC50: < 100 nM

CC(C)Nc1c(F)c(Cl)c(-c2cn3cc(NC(=O)[C@@H]4C[C@@H]4CCl)nc3cn2)c2cn[nH]c12 [Example 37, (1R,2S)-N-(6-(5-chloro-6-fluoro-7-(isopropylamino)-1H-indazol-4-yl)imidazo[1,2-a]pyrazin-2-yl)-2-(chloromethyl)cyclopropane-1-carboxamide]
IC50: < 100 nM

CC(N)c1c(F)c(C(F)F)c(-c2cn3cc(NC(=O)[C@@H]4C[C@@H]4F)nc3cn2)c2cn[nH]c12 (stereo partly drawn) [Example 55, (1S,2S)-N-(6-(7-(1-aminoethyl)-5-(difluoromethyl)-6-fluoro-1H-indazol-4-yl)imidazo[1,2-a]pyrazin-2-yl)-2-fluorocyclopropane-1-carboxamide]
IC50: 101 to 500 nM

CC(=O)Nc1cn2cc(-c3c(Cl)c(F)c([C@@H](C)NC(=O)C(F)(F)F)c4[nH]ncc34)ncc2n1 [Example 139, (R)-N-(1-(4-(2-acetamidoimidazo[1,2-a]pyrazin-6-yl)-5-chloro-6-fluoro-1H-indazol-7-yl)ethyl)-2,2,2-trifluoroacetamide]
IC50: < 100 nM

CC(C)Nc1c(F)c(Cl)c(-c2cn3cc(NC(=O)C(C)(C)C)nc3cn2)c2cn[nH]c12 [Example 82, N-(6-(5-chloro-6-fluoro-7-(isopropylamino)-1H-indazol-4-yl)imidazo[1,2-a]pyrazin-2-yl)pivalamide]
IC50: 101 to 500 nM
